In ChEMBL document CHEMBL1151611, “Antimicrobial principles from in vitro tissue culture of Peganum harmala” (J Nat Prod, 1984) one finds Activity data, which are given here for two molecules.

Type in all cases: functional, organism-based
The test system of one test is Candida albicans. Description: Antimicrobial activity against Candida albicans.
The next test has as its system Escherichia coli. Description: Antimicrobial activity against Escherichia coli.
The subject of a further test is Staphylococcus aureus. Description: Antimicrobial activity against Staphylococcus aureus.

The source made the active and inactive calls. No cut-off for these calls is given here.

In the case of `O=c1c(O)c(-c2ccc(O)cc2)oc2cc(O)cc(O)c12`, the result in the test with Candida albicans, with Escherichia coli and in the test on Staphylococcus aureus was Active.

`O=c1c(O)c(-c2ccc(O)c(O)c2)oc2cc(O)cc(O)c12`: the result in the test on Candida albicans was inactive. For the same molecule, the result in the test with Escherichia coli and in the test with Staphylococcus aureus was Active.
